What all share (type): cell-based, human
The test system of one assay is IκB, c-Myc, Noxa. Briefly: Western blot of IκB, c-Myc, Noxa in H1299 cells. Particulars: siHRP-3-treated H1299 cells. The procedure:
Specifically, a cell lysate obtained by lysing the scrambled siRNA- or siHRP-3-treated H1299 cells cultured in Example 6-2 was analyzed by Western blot using anti-HRP-3 antibodies, anti-IκB antibodies (Santa Cruz Biotechnology Inc., Santa Cruz, Calif., USA), anti-c-Myc antibodies (Calbiochem, San Diego, Calif., USA) and anti-Noxa antibodies (Calbiochem, San Diego, Calif., USA). Herein, β-actin was used as a loading control (FIG. 9A; left). As control cells, H1299 cells were treated with scrambled siRNA alone.
H1299 cells subjected to the inhibition of HRP-3 expression and radiation were obtained in the same manner as described in Example 6-4, except that radiation alone, was performed as anticancer treatment. The thus obtained H1299 cells were lysed to obtain a cell lysate. The expression levels of IκB, c-Myc and Noxa were measured in the same manner as described in Example 8-1, except that the thus obtained lysate was used, and NF-κB activity was also measured in the same manner as described in Example 8-1 (FIG. 9B). As control cells, H1299 cells treated with scrambled siRNA alone were used.
The thus obtained cells were lysed to obtain a cell lysate. The expression levels of IκB, c-Myc and Noxa were measured by Western blot analysis in the same manner as described in Example 8-1, except that the cell lysate was used. Also, NF-κB activity was measured by a reporter gene assay (FIG. 9C). […]

In the next assay the test system is NF-κB. Briefly: NF-κB reporter gene assay (pNF-κB-luc) in H1299 cells. To be noted: siHRP-3-treated H1299 cells, 2 μM BAY 11-7082, 48 hours. As to the method: In addition, the activity of NF-κB in the scrambled siRNA- or siHRP-3-treated H1299 cells was measured by a reporter gene assay using Dual-Reporter™. Specifically, H1299 cells were transfected with 0.5 μg plasmid DNA (pNF-κB-luc; Stratagene, Cambridge, UK) in Dual-Reporter™, and then the luciferase activity in the cells was measured using a luminometer, and the activity of NF-κB was measured at various protein concentrations (FIG. 9A; right).
(In general: In a reporter assay the amount or activity of a reporter protein is the signal.)

Assay [1] has as its system ROS. Briefly: ROS production by DCF-DA (confocal, FACS) in H1299 cells. Particulars: 3 mM NAC. As to the method:
According to a known method, the thus obtained H1299 cells were treated with 10 nM DCF-DA (2′,7′-dichlorofluorescein diacetate) for 20 minutes, and the produced ROS was detected (M. J. Kim, et al., Cancer Lett, 339:15-24, 2013) (FIG. 8D). The detection of ROS was performed by observing the DCF-DA-stained cells with a laser scanning confocal microscope and analyzing the DCF-DA-stained cells by FACS analysis to determine the production of ROS.

The subject of assay [2] is p53, pp53, PUMA, cleaved PARP. The assay is described as follows: Western blot of cleaved PARP, p53, pp53, PUMA in A549 cells. To be noted: siHRP-3-transfected A549 cells, 1 mM NAC. From the text: Additionally, the effect of p53 on the induction of apoptosis was examined. […] Next, the levels of HRP-3, cleaved PARP, p53, pp53, and PUMA proteins produced in the cells were detected by Western blot analysis (FIG. 5D).

The test system of assay [3] is ROS. The assay is described as follows: ROS production by FACS analysis using DCF-DA in A549 cells. To be noted: 1 mM NAC, 48 hours. As to the method: Thus, it was predicted that HRP-3 would influence ROS production, and the following experiment was performed in order to confirm this prediction. […] The level of ROS produced in the cells was determined by FACS analysis using 10 nM DCF-DA (FIG. 4C).
Further, A549 cells were transfected with 100 nM scrambled siRNA or HRP-3 siRNA without or with exposure to 10 Gy radiation and cultured, and the level of ROS produced in the cells was assessed by FACS analysis using 10 nM DCF-DA (FIG. 4D).

Another assay has as its system A549 cells. Briefly: Apoptosis by FACS analysis (annexin V / propidium iodide) in A549 cells. To be noted: 0.1 μg/ml doxorubicin or 5 ng/ml vinblastine, 48 hours. As to the method:
(§1) Human NSCLC cell lines (A549 and H460) were purchased from the ATCC and cultured in RPMI-1640 medium containing 10% FBS, 50 μg/ml streptomycin, and 50 units/ml penicillin. The cultured cells were irradiated using a ^137Cs-ray source (Atomic Energy of Canada, Ltd., Canada) at a dose rate of 3.81 Gy/min and were treated with 0.1 μg/ml doxorubicin or 5 ng/ml vinblastine. The treated cells were treated with trypsin, washed with PBS, stained with annexin V and propidium iodide, and then analyzed by FACS using a flow cytometer to measure apoptosis (FIG. 1A).
In addition, A549 cells were transfected with 100 nM scrambled siRNA or HRP-3 siRNA and cultured for 2 days. Then, changes in the morphology of the cells were observed under an optical microscope, and the death rate of the cells was measured by FACS analysis (FIG. 2D). Also, the levels of two apoptotic markers (cleaved PARP and active caspase-3) were determined by Western blotting (FIG. 2E).
In order to examine this correlation, the effect of HRP-3 in the A549 cells treated with radiation or the drug was analyzed. Specifically, A549 cells were transfected with 100 nM scrambled siRNA or HRP-3 siRNA, and then treated with 10 Gy radiation, 0.1 μg/ml doxorubicin or 5 ng/ml vinblastine and cultured. The death rate of the cultured cells was determined by FACS analysis (FIG. 3B).

For a further assay, the system named is H1299 cells. The assay is described as follows: Apoptosis by FACS analysis in H1299 cells. To be noted: 0.1 μg/ml doxorubicin or 5 ng/ml vinblastine, 48 hours. The procedure:
(§2) Specifically, while each type of H460 cells and H1299 cells were inoculated into a culture dish at a density of 3.5×10^5 cells/cm^2 and cultured in RPMI-1640 medium, each type of cell was radiated with 0 and 10 Gy of ^137Cs-rays, or the cell culture was treated with 0 and 0.1 μg/ml of doxorubicin or 0 and 5 ng/ml of vinblastine (Sigma, St. Louis, Mo., USA) and cultured. Next, the death rate of the cells was determined by FACS analysis according to a known method (M. J. Kim, et al., Cancer Lett, 339:15-24, 2013) (FIG. 7A).
The inhibition of HRP-3 expression in H1299 cells was performed according to the method in Example 6-2, and the H1299 cells, which were inhibited of HRP-3 expression, were subjected to anticancer treatment (radiation, doxorubicin treatment or vinblastine treatment), and their apoptotic rate was measured (FIG. 7D).
The morphological change and apoptotic rate of H1299 cells were measured in the same manner as described in Example 6-4, except that radiation alone was performed as anticancer treatment (FIG. 8A).
On the technique in general: A flow cytometer gives signals particle by particle.

The next assay concerns HRP-3. Briefly: HRP-3 protein level after radiation or drug treatment in H1299 cells (Western blot). Particulars: 0.1 μg/ml doxorubicin or 5 ng/ml vinblastine. The procedure:
While H1299 cells were cultured in RPMI-1640 medium, the cells were radiated with 10 Gy of ^137Cs-rays, or the cell culture was treated with 0.1 μg/ml doxorubicin or 5 ng/ml vinblastine, and the change in the expression level of HRP-3 as a function of time for a culture time of 48 hours was analyzed by Western blotting or immunofluorescence staining (FIGS. 6D and 6E).
(In general: A western blot detects proteins with antibodies after separation by electrophoresis.)

In a further assay the test system is H460 cells. Briefly: Apoptosis by FACS analysis in H460 cells. To be noted: 0.1 μg/ml doxorubicin or 5 ng/ml vinblastine, 48 hours. The procedure:
as §1, §2

The structures appear in SMILES notation. Entries after “also recorded” stand apart in the source; their conditions may differ.

With `Cc1ccc(S(=O)(=O)/C=C/C#N)cc1` [BAY 11-7082], the “IκB, c-Myc and Noxa expression changes due to inhibition of HRP-3 expression” value in the assay on IκB, c-Myc, Noxa (2 μM BAY 11-7082, 48 hours) was “levels similar to the control cells”. The “increase in NF-κB activity due to inhibition of HRP-3 expression” value with NF-κB is “levels similar to the control cells”.
`CC(=O)N[C@@H](CS)C(=O)O` [NAC, N-acetyl cysteine]: the “ROS production after inhibition of HRP-3 expression and radiation” value in the assay on ROS [1] is recorded as “decreased to that of control cells”. Further, the “IκB, c-Myc and Noxa expression changes due to inhibition of HRP-3 expression” value with IκB, c-Myc, Noxa (3 mM NAC, 48 hours) is listed as “levels similar to the control cells”. In [2], the “induction of cleaved PARP by HRP-3 deletion” value was “significantly decreased”; the “p53 and PUMA levels” value was “dramatically decreased”. Moreover, in the assay on ROS [3], the “effect on ROS generation induced by inhibition of HRP-3 expression” value is given as “reduced; also recorded: inhibited”.
On to `COc1cccc2c1C(=O)c1c(O)c3c(c(O)c1C2=O)C[C@@](O)(C(=O)CO)C[C@@H]3O[C@H]1C[C@H](N)[C@H](O)[C@H](C)O1` [doxorubicin], for which the “resistance of A549 cells compared to H460 cells (apoptosis)” value in the assay on A549 cells is reported as “higher levels of resistance”. Also, the results for the apoptotic rate entry in the assay on H1299 cells and in the assay with H460 cells were “about 23%” and “about 39%”, respectively. Besides, the “time after treatment at which level of HRP-3 peaked” value in the assay with HRP-3 turned out to be 12 h.
As to `CC[C@]1(O)C[C@@H]2CN(CCc3c([nH]c4ccccc34)[C@@](C(=O)OC)(c3cc4c(cc3OC)N(C)[C@H]3[C@@](O)(C(=O)OC)[C@H](OC(C)=O)[C@]5(CC)C=CCN6CC[C@]43[C@@H]65)C2)C1` [vinblastine], in the assay on A549 cells, the “resistance of A549 cells compared to H460 cells (apoptosis)” value is “higher levels of resistance”. In addition, the values for the apoptotic rate entry with H1299 cells and with H460 cells were “about 26%” and “about 43%”, respectively. Further, in the assay on HRP-3, the “time after treatment at which level of HRP-3 peaked” value stood at 12 h.
